target: Acetyl-coenzyme A synthetase, cytoplasmic (Homo sapiens, UniProt Q9NR19); experiment: Inhibition of N-terminal 6x-histidine tagged human ACSS2 expressed in insect cells assessed as reduction in pyrophosphate production using CoA and ATP incubated for 30 mins by pyrophosphatase coupled enzymatic assay
Sequence (Q9NR19 whole entry): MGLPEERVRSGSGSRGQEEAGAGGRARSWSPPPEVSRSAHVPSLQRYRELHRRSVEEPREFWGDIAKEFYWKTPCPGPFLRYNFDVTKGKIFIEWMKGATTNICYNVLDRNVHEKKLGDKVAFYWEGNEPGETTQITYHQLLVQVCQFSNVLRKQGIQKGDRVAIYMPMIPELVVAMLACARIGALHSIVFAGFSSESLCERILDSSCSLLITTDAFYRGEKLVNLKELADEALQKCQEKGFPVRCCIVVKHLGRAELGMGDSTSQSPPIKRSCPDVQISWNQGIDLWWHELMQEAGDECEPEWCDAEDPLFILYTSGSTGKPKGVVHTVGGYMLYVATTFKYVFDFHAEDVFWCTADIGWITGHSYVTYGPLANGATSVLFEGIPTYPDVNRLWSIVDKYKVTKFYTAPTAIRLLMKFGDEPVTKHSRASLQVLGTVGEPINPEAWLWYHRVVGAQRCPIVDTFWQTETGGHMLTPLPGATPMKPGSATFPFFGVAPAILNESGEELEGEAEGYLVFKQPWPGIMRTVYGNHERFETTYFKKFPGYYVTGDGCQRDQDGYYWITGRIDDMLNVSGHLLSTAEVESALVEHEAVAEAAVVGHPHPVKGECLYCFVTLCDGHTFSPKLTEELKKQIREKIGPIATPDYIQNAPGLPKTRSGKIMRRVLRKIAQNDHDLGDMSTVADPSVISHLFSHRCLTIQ

| SMILES | IC50 |
| --- | --- |
| CCn1c(C(O)(c2ccccc2)c2ccccc2)nc2ccc(C(=O)NCC3CCOCC3)cc21 | 0.05 to 0.249 µM |
| CCn1c(C(O)(c2ccccc2)c2ccccc2)nc2ccc(C(=O)N3CCCC3)cc21 | > 1 µM |
| Cc1cccnc1C(O)(c1ccc(F)cc1)c1nc2ccc(C(=O)NC[C@@H](C)O)cc2n1C (some centres not stated) | 0.25 to 1 µM |
| C[C@@H](O)CNC(=O)c1ccc2nc(C(c3ccccc3)c3ccccc3)[nH]c2c1 | > 1 µM |
| CCn1c(C(O)(c2ccccc2)c2ccccc2)nc2ccc(OCCN(C)C(C)=O)cc21 | > 1 µM |
| CCn1c(C(O)(c2ccccc2)c2ccccc2)nc2ccc(Oc3ccccc3)cc21 | 0.25 to 1 µM |
| CNC(=O)c1ccc2nc(C(O)(c3ccc(F)cc3)c3ccc(F)cc3)n(C)c2c1 | 0.25 to 1 µM |
| Cc1ccc2nc(C(O)(c3ccccc3)c3ncccc3C)n(C)c2c1 (configuration not stated) | > 1 µM |
| CC(O)Cn1c(C(O)(c2ccccc2)c2ccccc2)nc2ccc(C(=O)NC[C@@H](C)O)cc21 (some centres not stated) | 0.05 to 0.249 µM |
| CCn1c(C(O)(c2ccccc2)c2ccccc2)nc2ccc(C(=O)NC(C)C)cc21 | 0.25 to 1 µM |
| COc1ccc(C(O)(c2ccccc2)c2nc3ccc(C)cc3n2C)cn1 (configuration not stated) | > 1 µM |
| CCn1c(C(O)(c2ccc(F)cc2F)c2ccc(F)cc2F)nc2ccc(C(=O)NCCO)cc21 | 0.25 to 1 µM |
| CCOc1ccc2c(c1)nc(C(O)(c1ccccc1)c1ccccc1)n2C | 0.05 to 0.249 µM |
| CCn1c(C(O)(c2ccc(F)cc2F)c2ccc(F)cc2F)nc2ccc(C(=O)NC)cc21 | 0.05 to 0.249 µM |
| CCn1c(C(O)(c2ccccc2F)c2ncccc2F)nc2ccc(CCCO)cc21 (configuration not stated) | 0.05 to 0.249 µM |
| CCn1ccc(NC(=O)c2ccc3nc(C(O)(c4ccccc4)c4ccccc4)n(CC)c3c2)n1 | > 1 µM |
| CCn1c(C(O)(c2ccccc2)c2ccccc2)nc2ccc(C(=O)N[C@@H]3CCC(=O)N(C)C3)cc21 | 0.25 to 1 µM |
| CCn1c(C(O)(c2ccccc2)c2ccccc2)nc2ccc(C(=O)NC3CCC3)cc21 | 0.25 to 1 µM |
| CCn1c(C(O)(c2ccccc2)c2ccccc2)nc2ccc(Cl)cc21 | 0.25 to 1 µM |
| CCn1c(C(O)(c2ccccc2)c2ccccc2)nc2ccc(C(=O)NC[C@@H](O)CO)cc21 | 0.05 to 0.249 µM |
| CCn1c(C(O)(c2ccccc2)c2ccccc2)nc2ccc(C(=O)NC3CCNC3)cc21 (configuration not stated) | 0.05 to 0.249 µM |

| SMILES | IC50 |
| --- | --- |
| C[C@@H](O)CNC(=O)c1ccc2nc(C(O)(c3ccc(F)cc3)c3ccc(F)cc3)n(C)c2c1 | 0.25 to 1 µM |
| CCn1c(C(O)(c2ccccc2)c2ccccc2)nc2ccc(CNC(=O)[C@@H](C)O)cc21 | 0.25 to 1 µM |
| Cn1c(C(O)(c2ccccc2)c2cccc(C(=O)NCCO)c2)nc2ccc(Cl)cc21 (configuration not stated) | > 1 µM |
| CCN1CC[C@@H](NC(=O)c2ccc3nc(C(O)(c4ccccc4)c4ccccc4)n(CC)c3c2)C1 | 0.05 to 0.249 µM |
| CCn1c(C(O)(c2ccccc2)c2ccccc2)nc2ccc(C3(O)CCC3)cc21 | > 1 µM |
| CCOc1ccc2nc(C(O)(c3ccccc3)c3ccccc3)n(CC)c2c1 | 0.25 to 1 µM |
| CCn1c(C(O)(c2ccccc2)c2ccccc2)nc2ccc(C(=O)NC(C)CO)cc21 (configuration not stated) | 0.25 to 1 µM |
| CCn1c(C(O)(c2ccccc2)c2ccccc2)nc2ccc(C(=O)N3CCC(O)CC3)cc21 | > 1 µM |
| CCn1c(C(O)(c2ccc(F)cc2F)c2ccc(F)cc2F)nc2ccc(C(=O)NC[C@@H](C)O)cc21 | 0.05 to 0.249 µM |
| CCn1c(C(O)(c2ccc(C)cc2)c2ncccc2F)nc2ccc(CCCO)cc21 (configuration not stated) | 0.25 to 1 µM |
| Cc1cccc2c1nc(C(O)(c1ccccc1)c1ccccc1)n2C | > 1 µM |
| C[C@@H](O)CNC(=O)c1ccc2nc(C(O)(c3ccccc3)c3ccccc3)n(C3CCOCC3)c2c1 | > 1 µM |
| CCc1ccc2nc(C(O)(c3ccccc3)c3ccccc3)n(CC)c2c1 | 0.25 to 1 µM |
| CCn1c(C(O)(c2ccccc2)c2ccccc2)nc2ccc(C(=O)N3CCC(N)C3)cc21 (configuration not stated) | > 1 µM |
| CCn1c(C(O)(c2ccccc2)c2ccccc2)nc2ccc(CNC(=O)[C@H](C)O)cc21 | 0.25 to 1 µM |
| CCn1c(C(O)(c2ccccc2)c2ccccc2)nc2ccc(F)c(F)c21 | > 1 µM |
| CCn1c(C(O)(c2ccccc2)c2ccccc2)nc2ccc(C(N)=O)cc21 | 0.05 to 0.249 µM |
| CCn1c(C(O)(c2ccccc2)c2ccccc2)nc2ccc(C(F)(F)C(=O)NC[C@@H](C)O)cc21 | 0.05 to 0.249 µM |
| CNC(=O)c1ccc2nc(C(c3ccccc3)c3ccccc3)[nH]c2c1 | > 1 µM |
| CCn1c(C(O)(c2ccccc2)c2ccccc2)nc2ccc(C3(O)CCCC3)cc21 | 0.25 to 1 µM |

Further lines, results first:

| IC50 | SMILES |
| --- | --- |
| > 1 µM | CCNC(=O)c1cccc(C(O)(c2ccccc2)c2nc3ccc(Cl)cc3n2C)c1 (configuration not stated) |
| 0.05 to 0.249 µM | C=CCC1(c2ccc3nc(C(O)(c4ccccc4)c4ccccc4)n(CC)c3c2)COC1 |
| 0.05 to 0.249 µM | CCn1c(C(O)(c2ccccc2)c2ccccc2)nc2ccc(CNC(=O)NC)cc21 |
| > 1 µM | CCn1c(C(O)(c2ccccc2)c2ccccc2)nc2ccc(OCCOC)cc21 |
| 0.25 to 1 µM | C[C@@H](O)CNC(=O)c1ccc2nc(C(O)(c3ccc(F)cc3)c3ncccc3F)n(C)c2c1 (some centres not stated) |
| 0.25 to 1 µM | CCn1c(C(O)(c2ccccc2)c2ccccc2)nc2ccc(C(F)(F)C#N)cc21 |
| 0.05 to 0.249 µM | CCn1c(C(O)(c2ccccc2)c2ccccc2)nc2ccc(C(=O)NC[C@H](O)CO)cc21 |
| 0.25 to 1 µM | CCn1c(C(O)(c2ccccc2)c2ccccc2)nc2ccc(OCC(=O)N(C)C)cc21 |
| > 1 µM | Cn1c(C(O)(c2ccccc2)c2ccc(Cl)cc2)nc2ccc(C#N)cc21 (configuration not stated) |
| 0.05 to 0.249 µM | CN1C[C@H](NC(=O)c2ccc3nc(C(O)(c4ccccc4)c4ccccc4)n(C)c3c2)CCC1=O |
| 0.25 to 1 µM | C[C@@H](O)CNC(=O)c1ccc2nc(C(O)(c3ccccc3)c3ccccc3)n(CC(O)CO)c2c1 (some centres not stated) |
| 0.05 to 0.249 µM | Cn1cc(NC(=O)c2ccc3nc(C(O)(c4ccccc4F)c4ccccc4F)n(CCO)c3c2)cn1 |
| 0.05 to 0.249 µM | CCn1c(C(O)(c2ccccc2)c2ccc(F)cc2F)nc2ccc(C(=O)NC[C@@H](C)O)cc21 (some centres not stated) |
| 0.25 to 1 µM | CCn1c(C(O)(c2ccccc2)c2ccc(F)cc2F)nc2ccc(C(=O)NCCO)cc21 (configuration not stated) |
| 0.05 to 0.249 µM | Cn1cc(NC(=O)c2ccc3nc(C(O)(c4ccccc4)c4ccccc4)n(CCO)c3c2)cn1 |
| 0.25 to 1 µM | CCn1c(C(O)(c2ccccc2)c2ccccc2)nc2ccc(C3(O)COC3)cc21 |
| > 1 µM | CCn1c(C(O)(c2ccccc2)c2ccccc2)nc2ccc(F)cc21 |
| > 1 µM | CCn1c(C(O)(c2ccccc2)c2ccccc2)nc2ccc(C(=O)N3CCOCC3)cc21 |
| 0.25 to 1 µM | CCn1c(C(O)(c2ccccc2)c2ccccc2)nc2ccc(C(=O)NCCN(C)C)cc21 |

| IC50 | SMILES |
| --- | --- |
| 0.05 to 0.249 µM | CCn1c(C(O)(c2ccccc2)c2ccccc2)nc2ccc(C(=O)Nc3cnn(CCO)c3)cc21 |
| 0.25 to 1 µM | COCCn1c(C(O)(c2ccccc2)c2ccccc2)nc2ccc(C(=O)NC[C@@H](C)O)cc21 |
| 0.05 to 0.249 µM | CC(C)Cn1c(C(O)(c2ccccc2)c2ccccc2)nc2ccc(C(=O)NC[C@@H](C)O)cc21 |
| 0.05 to 0.249 µM | CCn1c(C(O)(c2ccccc2)c2ccccc2)nc2ccc(CC(O)CO)cc21 (configuration not stated) |
| 0.05 to 0.249 µM | CCn1c(C(O)(c2ccccc2)c2ccccc2)nc2ccc(C(=O)Nc3ccc(OC)cc3)cc21 |
| 0.05 to 0.249 µM | CCn1c(C(O)(c2ccccc2)c2ccccc2)nc2ccc(C(=O)Nc3cn(C)cn3)cc21 |
| 0.05 to 0.249 µM | CCn1c(C(O)(c2ccccc2)c2ccccc2)nc2ccc(C(F)C#N)cc21 (configuration not stated) |
| > 1 µM | CCn1c(C(O)(c2ccccc2)c2ccccc2)nc2ccc(C(=O)N3CCC(N)CC3)cc21 |
| > 1 µM | CCn1c(C(O)(c2ccccc2)c2ccccc2)nc2ccc(C3(O)CCOC3)cc21 (configuration not stated) |
| > 1 µM | CCn1c(C(O)(c2ccccc2)c2ccccc2)nc2cccc(Cl)c21 |
| > 1 µM | CNC(=O)c1cccc(C(O)(c2ccccc2)c2nc3ccc(Cl)cc3n2C)c1 (configuration not stated) |
| > 1 µM | C[C@@H](O)CNC(=O)c1ccc2nc(C(O)(c3ccccc3)c3ccccc3)n(C3CCNCC3)c2c1 |
| 0.25 to 1 µM | CCn1c(C(O)(c2ccccc2)c2ccccc2)nc2ccc(OCC(=O)NC)cc21 |
| 0.05 to 0.249 µM | CCn1c(C(O)(c2ccccc2F)c2ccccc2F)nc2ccc(C(=O)NCCO)cc21 |
| 0.25 to 1 µM | CCn1c(C(O)(c2ccccc2)c2ccccc2)nc2ccc(C(=O)NC3CC(F)(F)C3)cc21 |
| > 1 µM | C[C@@H](O)CNC(=O)c1ccc2nc(C(O)(c3ccccc3)c3ccccc3)n(CC3CCOCC3)c2c1 |
| 0.25 to 1 µM | CCn1c(C(O)(c2ccccc2)c2ccccc2)nc2c(F)cc(C(=O)NC)cc21 |
| 0.05 to 0.249 µM | CCC(O)CNC(=O)c1ccc2nc(C(O)(c3ccccc3)c3ccccc3)n(CC)c2c1 (configuration not stated) |
| > 1 µM | CN(C)C(=O)c1cccc(C(O)(c2ccccc2)c2nc3ccc(Cl)cc3n2C)c1 (configuration not stated) |

| IC50 | SMILES |
| --- | --- |
| > 1 µM | CCn1c(C(O)(c2ccccc2)c2ccccc2)nc2ccc(OCC(C)O)cc21 (configuration not stated) |
| 0.25 to 1 µM | C[C@@H](O)CNC(=O)c1ccc2nc(C(O)(c3ccccc3)c3ncccc3F)n(C)c2c1 (some centres not stated) |
| 0.05 to 0.249 µM | CCn1c(C(O)(c2ccccc2)c2ccccc2)nc2ccc(C(=O)NC3(C#N)CC3)cc21 |
| 0.25 to 1 µM | CCn1c(C(O)(c2ccccc2)c2ccccc2)nc2ccc(OC)cc21 |
| > 1 µM | CCn1c(C(O)(c2ccccc2)c2ccccc2)nc2cccc(F)c21 |
| > 1 µM | CCn1c(C(O)(c2ccccc2)c2ccccc2)nc2ccc(C3(O)CCOCC3)cc21 |
| 0.05 to 0.249 µM | CCn1c(C(O)(c2ccccc2)c2ccccc2)nc2ccc(C(O)C(F)(F)F)cc21 (configuration not stated) |
| 0.25 to 1 µM | CCn1c(C(O)(c2ccccc2)c2ccccc2)nc2ccc(C(=O)NC[C@@H](C)O)c(OC)c21 |
| 0.05 to 0.249 µM | CCn1c(C(O)(c2ccccc2)c2ccccc2)nc2cc(F)c(C(=O)NC)cc21 |
| 0.25 to 1 µM | CCn1c(C(O)(c2ccccc2)c2ccccc2)nc2c(OC)cc(C(=O)NC[C@@H](C)O)cc21 |
| 0.25 to 1 µM | CCn1c(C(O)(c2ccccc2)c2ccccc2)nc2cc(F)c(C(=O)NC[C@@H](C)O)cc21 |
| 0.05 to 0.249 µM | CCn1c(C(O)(c2ccccc2)c2ccccc2)nc2ccc(S(=O)(=O)CC)cc21 |
| > 1 µM | Cc1ccc2nc(C(O)(c3ccccc3)c3ccn(C)c(=O)c3)n(C)c2c1 (configuration not stated) |
| 0.05 to 0.249 µM | CN1C[C@H](NC(=O)c2ccc3nc(C(O)(c4ccccc4F)c4ccccc4F)n(C)c3c2)CCC1=O |
| 0.25 to 1 µM | CCn1c(C(O)(c2ccccc2)c2ccccc2)nc2cnc(OCCCO)cc21 |
| > 1 µM | CCn1c(C(O)(c2ccccc2)c2ccccc2)nc2ccc(OC(C)C)cc21 |
| 0.05 to 0.249 µM | CCc1cccc(OCc2ccc3nc(C(O)(c4ccccc4)c4ccccc4)n(CC)c3c2)c1 |
| 0.25 to 1 µM | CCn1c(C(OC)(c2ccccc2)c2ccccc2)nc2ccc(C(=O)NCC(F)(F)C#N)cc21 |
